Data taken from the NIST ThermoML archive (doi:10.1021/je050416y).

Test: xn = mol fraction of the nth substance listed
Details: 101 kPa, Liquid; for mass density: Vibrating tube method

CCC(C)CO (stereo unspecified) [2-methyl-1-butanol] + CCO
Details | kinematic viscosity, 308.15 K [m2/s] | kinematic viscosity, 313.15 K [m2/s] | kinematic viscosity, 318.15 K [m2/s] | kinematic viscosity, 323.15 K [m2/s] | mass density, 313.15 K [kg/m3] | mass density, 318.15 K [kg/m3] | mass density, 323.15 K [kg/m3]
x1 = 0.0268 | – | – | – | – | 773.7 | 769.4 | 765.1
x1 = 0.0549 | – | – | – | – | 775.2 | 771 | 766.7
x1 = 0.0845 | – | – | – | – | 776.7 | 772.5 | 768.3
x1 = 0.0915 | 1.2e-06 | 1.08e-06 | 9.8e-07 | 8.59e-07 | – | – | –
x1 = 0.1156 | – | – | – | – | 778.2 | 774.1 | 769.9
x1 = 0.1484 | – | – | – | – | 779.7 | 775.6 | 771.5
x1 = 0.1753 | 1.27e-06 | 1.14e-06 | 1.03e-06 | 8.96e-07 | – | – | –
x1 = 0.183 | – | – | – | – | 781.2 | 777.2 | 773.1
x1 = 0.2524 | 1.34e-06 | 1.2e-06 | 1.07e-06 | 9.37e-07 | – | – | –
x1 = 0.2584 | – | – | – | – | 784.2 | 780.3 | 776.3
x1 = 0.3235 | 1.42e-06 | 1.26e-06 | 1.13e-06 | 9.83e-07 | – | – | –
x1 = 0.3433 | – | – | – | – | 787.3 | 783.5 | 779.6
x1 = 0.3894 | 1.5e-06 | 1.33e-06 | 1.19e-06 | 1.04e-06 | – | – | –
x1 = 0.4395 | – | – | – | – | 790.5 | 786.8 | 782.9
x1 = 0.4505 | 1.6e-06 | 1.41e-06 | 1.25e-06 | 1.1e-06 | – | – | –
x1 = 0.5495 | – | – | – | – | 793.8 | 790.1 | 786.3
x1 = 0.5605 | 1.82e-06 | 1.6e-06 | 1.41e-06 | 1.23e-06 | – | – | –
x1 = 0.6567 | 2.07e-06 | 1.8e-06 | 1.59e-06 | 1.39e-06 | – | – | –
x1 = 0.6765 | – | – | – | – | 797 | 793.4 | 789.7
x1 = 0.7416 | 2.33e-06 | 2.03e-06 | 1.78e-06 | 1.56e-06 | – | – | –
x1 = 0.817 | 2.62e-06 | 2.28e-06 | 2e-06 | 1.75e-06 | – | – | –
x1 = 0.8247 | – | – | – | – | 800.3 | 796.7 | 793.2
x1 = 0.8844 | 2.97e-06 | 2.58e-06 | 2.26e-06 | 1.98e-06 | – | – | –
x1 = 0.9451 | 3.43e-06 | 2.97e-06 | 2.6e-06 | 2.28e-06 | – | – | –
x1 = 1 | 4.08e-06 | 3.54e-06 | 3.09e-06 | 2.72e-06 | 803.6 | 800.1 | 796.6
